Tested on: E. coli XL2 Blue MRF′
Experiment: Sensitivity of E. coli to kanamycin in agar plugs on flow-through (Pam) substrate, zone of clearing
Assay type: cell-based
Details: 12 hours at 37° C.
Method: […] The porous nature of the substrate draws the molten agar into the pores by capillary action. These treated substrates were then overlaid with 10^6 cfu/ml E. coli XL2 MRF′ cells containing plasmid pUC18 that had been grown in 2TY broth with 100 μg/ml ampicillin and placed on 2TY plates with the same concentration of ampicillin. Plates were then incubated for 12 hours at 37° C.

NC[C@H]1O[C@H](O[C@H]2[C@H](O)[C@@H](O[C@H]3O[C@H](CO)[C@@H](O)[C@H](N)[C@H]3O)[C@H](N)C[C@@H]2N)[C@H](O)[C@@H](O)[C@@H]1O [Kanamycin, kanamycin]
Zone of clearing (diameter mm) (10 ng kanamycin, N=12): 0.4 mm
Zone of clearing (diameter mm) (100 ng kanamycin, N=16): 2.1 mm
Zone of clearing (diameter mm) (1000 ng kanamycin, N=12): 3.5 mm
